For one test, the system named is E0771 tumors. The test can be described thus: Interstitial fluid pressure (IFP), wick-in-needle technique. Particulars: 1 mg/kg bosentan. The class given is in vivo, mice. As for the experimental part: Mice bearing syngeneic, orthotopic triple negative breast cancer (TNBC) were treated with a range of sub-therapeutic doses of bosentan, from 0.2 mg/kg to 10 mg/kg of body weight. Orthotopic models for murine mammary tumors were generated by implantation of 5×10^4 4T1 or E0771 cancer cells in 40 μl of serum-free medium into the third mammary fat pad of 6-8-week-old BALB/c and C57BL/6 female mice, respectively. 4T1 (ATCC® CRL-2539TH) and E0771 (94A001, CH3 BioSystems) mouse breast adenocarcinoma cell lines were purchased form ATCC and CH3 BioSystems, respectively. The cells were maintained at 37° C./5% CO2 in Roswell Park Memorial Institute medium (RPMI-1640, LM-R1637, Biosera) supplemented with 10% fetal bovine serum (FBS, FB-1001H, biosera) and 1% antibiotics (A5955, Sigma). Bosentan (bosentan Hydrate (S3051, Selleckchem) was dissolved in ddH2O containing 2% DMSO (GK2245, Glentham Life Science), 30% PEG300 (S6704, Selleckchem) and 2% Tween 80 (S6702, Selleckchem)) 1 mg/kg, 5 mg/kg, 10 mg/kg or equal volume of diluent (control group) was administered by intraperitoneal injection (i.p.) once a day for 10 days, starting from once the tumor volumes reached an average size of 100 mm^3. Tumors were excised when they reached an average size of 500 mm^3. Tissue stiffness was then measured non-invasively and longitudinally using ultrasound elastography. […]

The subject of test [1] is spontaneous 4T1 metastases. The test can be described thus: Survival of mice with spontaneous metastases after surgical removal of primary tumors. It counts as in vivo. Particulars: 1 mg/kg bosentan combined with ICB cocktail, n=8-10. The protocol: (§1) To determine if a stiffness-reducing and hypoxia-reducing (blood flow-increasing) regimen of bosentan could enhance the efficacy of an ICB cocktail of anti-PD-1 (mouse monoclonal anti-PD-1 CD279, clone RMP1-14, BioXCell) and anti-CTLA-4 (mouse monoclonal anti-CTLA-4 CD152, clone 9D9, BioXCell) antibodies, mice bearing primary tumors in a neo-adjuvant setting were administered various treatments. Therapy was administered before removing the primary tumors surgically to assess mice survival against spontaneous metastases that arose on treatment. For the combinatorial treatment with bosentan and Immunotherapy studies, bosentan 1 mg/kg or equal volume of diluent (control group) was administered by intraperitoneal injection (i.p.) once a day for 14 days, starting from once the tumor volumes reached an average size of 5 mm diameter. Immunotherapy was administrated as a cocktail of 10 mg/kg anti-PD-1 (CD279, clone RMP1-14, BioXCell) and 5 mg/kg anti-CTLA-4 (CD152, clone 9D9) following dilution in the recommended InVivoPure pH 7.0 Dilution Buffer (BioXCell). The immunotherapy cocktail was administered i.p. when tumors reached an average size of 200 mm^3 every three days for three doses. For the immunotherapy studies, animals were also treated with a non-targeting isotype control antibody (BioXCell). Primary tumors were excised when they reached an average size of 700 mm^3 and the tissue was sutured for the study of the metastatic tumors. Planar dimensions (x, y) of tumor were monitored every 2-3 days using a digital caliper and tumor volume was estimated from the volume of an ellipsoid and assuming that the third dimension, z, is equal to […]. For the overall survival studies, the ending point was the time to mouse death. […] In the E0771 study, 8 out of 10 mice initiated survived. […] The remaining five mice were rechallenged with a second inoculation of E0771 cells and the tumor growth rates were compared against healthy age-matched control mice.

Test [2] concerns spontaneous E0771 metastases. The description is as above. It counts as in vivo. As for the experimental part: as §1
The next test has as its system 4T1 tumors. Description: Whole tumor RT-PCR mRNA expression. The class given is in vivo, mice.

Turning to `COc1ccccc1Oc1c(NS(=O)(=O)c2ccc(C(C)(C)C)cc2)nc(-c2ncccn2)nc1OCCO` [bosentan, 4-tert-butyl-N-[6-(2-hydroxy-ethoxy)-5-(2-methoxy-phenoxy)-2-(pyrimidin-2-yl)pyrimidin-4-yl] benzenesulfonamide], the interstitial fluid pressure entry in the test with E0771 tumors was “decrease in interstitial fluid pressure”. In addition, the “survival, median overall survival (Kaplan-Meier)” value in test [1] was “potentiated”. Also, the “survival (Kaplan-Meier)” value in test [2] (1 mg/kg bosentan combined with ICB cocktail, E0771) is “potentiated”. Moreover, in test [2] (E0771 study, bosentan combined with ICB cocktail), the mice surviving is 8 out of 10. Besides, in test [2] (three surviving mice sacrificed, bosentan combined with ICB cocktail), the “macrometastases in the lungs” value is on record as “no evidence of macrometasteses”. Also, in the test with 4T1 tumors, the “T cell activity expression (mRNA)” value is listed as “increased”, the “endothelial adhesion molecule expression (mRNA)” value is listed as “increased” and the “hypoxia related gene-expression (mRNA)” value is on record as “reduced”.

(Values after patent US20240024317A1, “CANCER TREATMENT USING BOSENTAN IN COMBINATION WITH A CHECKPOINT INHIBITOR” (Materia Therapeutics Inc., priority 2020, published 2024).)
